Experimental data from ChEMBL document CHEMBL5113508, “Targeting Human CD22/Siglec-2 with Dimeric Sialosides as Novel Oligosaccharide Mimetics” (J Med Chem, 2022).

Legend:
[1] = target: B-cell receptor CD22 (Homo sapiens) (UniProt P20273); assay: (§1) Inhibition of CD22 in human Daudi cells assessed as relative inhibitory potency in presence of biotinylated dimeric 2-(78-biotinoylamino-1,4,7,10,13,16-hexaoxa-octadecyl)-1,4-bis(2-aza-l-oxo-8-(sodium(5-acetamido-3,5,9-trideoxy-9-(4-phenylbenzamido)-D-glycero-a-D-galacto-non-2-ulopyranosyloxyonate))-5-thia-octyl) benzene preincubated for 15 mins followed by probe addition incubated for 20 mins by flow cytometric analysis relative to 1,4-bis-(2-Aza-1-oxo-8-(sodium(5-acetamido-3,5,9-trideoxy-9-(4-phenylbenzamido)-D-glycero-alpha-D-galacto-non-2-ulopyranosyloxyonate))-5-thia-octyl)benzene; assay type: cell-based; settings: time 35.0 min
[2] = target: B-cell receptor CD22 (Homo sapiens) (UniProt P20273); assay: Inhibition of to hFc tagged CD22 (unknown origin) assessed as relative inhibitory potency incubated for 4 hrs by ELISA relative to 1,4-bis-(2-Aza-1-oxo-8-(sodium(5-acetamido-3,5,9-trideoxy-9-(4-phenylbenzamido)-D-glycero-alpha-D-galacto-non-2-ulopyranosyloxyonate))-5-thia-octyl)benzene
[3] = target: B-cell receptor CD22 (Homo sapiens) (UniProt P20273); assay: as §1, with “CD22 (unknown origin)” for “CD22”, “1,4-Bis-(2-aza-1-oxo-8-(sodium-(5-acetamido-3,5-dideoxy-D-glycero-alpha-D-galacto-non-2-ulopyranosyloxyonate))-5-thia-octyl)benzene” for “1,4-bis-(2-Aza-1-oxo-8-(sodium(5-acetamido-3,5,9-trideoxy-9-(4-phenylbenzamido)-D-glycero-alpha-D-galacto-non-2-ulopyranosyloxyonate))-5-thia-octyl)benzene”; assay type: cell-based; settings: time 35.0 min

Chain of B-cell receptor CD22 (Homo sapiens) (P20273 whole entry): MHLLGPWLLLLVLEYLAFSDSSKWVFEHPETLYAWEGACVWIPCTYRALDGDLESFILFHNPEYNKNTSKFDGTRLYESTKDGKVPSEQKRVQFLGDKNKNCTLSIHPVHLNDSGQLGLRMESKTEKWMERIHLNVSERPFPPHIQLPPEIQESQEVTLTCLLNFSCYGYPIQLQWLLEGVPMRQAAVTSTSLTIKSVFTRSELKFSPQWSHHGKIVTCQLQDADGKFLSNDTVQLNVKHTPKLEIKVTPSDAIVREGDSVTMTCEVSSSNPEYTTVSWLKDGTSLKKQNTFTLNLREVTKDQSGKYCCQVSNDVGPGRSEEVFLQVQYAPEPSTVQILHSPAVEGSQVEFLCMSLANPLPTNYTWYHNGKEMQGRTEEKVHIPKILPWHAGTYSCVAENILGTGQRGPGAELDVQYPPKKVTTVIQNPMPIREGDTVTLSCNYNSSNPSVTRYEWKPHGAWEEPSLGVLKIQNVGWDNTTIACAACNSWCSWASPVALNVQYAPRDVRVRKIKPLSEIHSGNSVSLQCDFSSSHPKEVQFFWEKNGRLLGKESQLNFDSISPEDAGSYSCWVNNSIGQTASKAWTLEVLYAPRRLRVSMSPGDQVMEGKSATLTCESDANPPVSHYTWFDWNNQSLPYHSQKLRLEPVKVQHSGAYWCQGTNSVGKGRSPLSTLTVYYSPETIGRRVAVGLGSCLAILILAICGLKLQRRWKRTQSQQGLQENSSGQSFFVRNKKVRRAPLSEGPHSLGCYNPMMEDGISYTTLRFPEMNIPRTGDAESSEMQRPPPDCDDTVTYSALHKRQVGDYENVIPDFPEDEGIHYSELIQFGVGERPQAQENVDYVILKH

Q: Which fold change (FC) [1] does the source give for `CC(=O)N[C@H]1[C@H]([C@H](O)[C@H](O)CO)O[C@@](OCCCSCCNC(=O)c2ccc(C(=O)NCCSCCCO[C@]3(C(=O)O)C[C@H](O)[C@@H](NC(C)=O)[C@H]([C@H](O)[C@H](O)CO)O3)cc2)(C(=O)O)C[C@@H]1O` here?
A: 0.00034

Q: What about the fold change (FC) [2] of the same compound?
A: 0.01

Q: `CC(=O)N[C@H]1[C@H]([C@H](O)[C@H](O)CNC(=O)c2ccc(-c3ccccc3)cc2)O[C@@](OCCCSCCC(=O)Nc2ccc(NC(=O)CCSCCCO[C@]3(C(=O)O)C[C@H](O)[C@@H](NC(C)=O)[C@H]([C@H](O)[C@H](O)CNC(=O)c4ccc(-c5ccccc5)cc4)O3)cc2)(C(=O)O)C[C@@H]1O` was tested. Which fold change (FC) [1] did it give?
A: 1.5

Q: What about the fold change (FC) [2] of the same compound?
A: 0.1

Q: `CC(=O)N[C@H]1[C@H]([C@H](O)[C@H](O)CNC(=O)c2ccc(-c3ccccc3)cc2)O[C@@](OCc2cn(CCNC(=O)c3ccc(C(=O)NCCn4cc(CO[C@]5(C(=O)O)C[C@H](O)[C@@H](NC(C)=O)[C@H]([C@H](O)[C@H](O)CNC(=O)c6ccc(-c7ccccc7)cc6)O5)nn4)cc3)nn2)(C(=O)O)C[C@@H]1O` was tested. Which fold change (FC) [1] did it give?
A: 0.0028

Q: And the fold change (FC) [2]?
A: 0.18

Q: `CC(=O)N[C@H]1[C@H]([C@H](O)[C@H](O)CNC(=O)c2ccc(-c3cccs3)s2)O[C@@](OCCCSCCNC(=O)c2ccc(C(=O)NCCSCCCO[C@]3(C(=O)O)C[C@H](O)[C@@H](NC(C)=O)[C@H]([C@H](O)[C@H](O)CNC(=O)c4ccc(-c5cccs5)s4)O3)cc2)(C(=O)O)C[C@@H]1O` was tested. Which fold change (FC) [1] did it give?
A: 0.07

Q: And the fold change (FC) [2]?
A: 4.5

Q: For `CC(=O)N[C@H]1[C@H]([C@H](O)[C@H](O)CNC(=O)c2ccc(-c3ccccc3)cc2)O[C@@](OCCCSCCNC(=O)c2ccc(-c3ccc(C(=O)NCCSCCCO[C@]4(C(=O)O)C[C@H](O)[C@@H](NC(C)=O)[C@H]([C@H](O)[C@H](O)CNC(=O)c5ccc(-c6ccccc6)cc5)O4)cc3)cc2)(C(=O)O)C[C@@H]1O`, which fold change (FC) [1] is on record?
A: 0.01

Q: What about the fold change (FC) [2] of the same compound?
A: 0.17

Q: With `CC(=O)N[C@H]1[C@H]([C@H](O)[C@H](O)CNC(=O)c2ccc(-c3ccccc3)cc2)O[C@@](OCCCSCCNC(=O)c2ccc(C(=O)NCCSCCCO[C@]3(C(=O)O)C[C@H](NS(=O)(=O)O)[C@@H](NC(C)=O)[C@H]([C@H](O)[C@H](O)CNC(=O)c4ccc(-c5ccccc5)cc4)O3)cc2)(C(=O)O)C[C@@H]1NS(=O)(=O)O` as the compound, how does the fold change (FC) [1] read?
A: 138

Q: What about the fold change (FC) [2] of the same compound?
A: 65

Q: For `CC(=O)N[C@H]1[C@H]([C@H](O)[C@H](O)CNC(=O)c2ccc(-c3ccccc3)cc2)O[C@@](OCCCSCCNC(=O)c2ccc(C(=O)NCCSCCCO[C@]3(C(=O)O)C[C@H](O)[C@@H](NC(C)=O)[C@H]([C@H](O)[C@H](O)CNC(=O)c4ccc(C5CCCCC5)cc4)O3)cc2)(C(=O)O)C[C@@H]1O`, which fold change (FC) [3] is on record?
A: 185

Q: With `CC(=O)N[C@H]1[C@H]([C@H](O)[C@H](O)CNC(=O)c2ccc(-c3ccccc3)cc2)O[C@@](OCCCSCCNC(=O)c2ccc(C(=O)NCCSCCCO[C@]3(C(=O)O)C[C@H](NS(=O)(=O)O)[C@@H](NC(C)=O)[C@H]([C@H](O)[C@H](O)CNC(=O)c4ccc(-c5ccccc5)cc4)O3)c(OCCOCCOCCOCCOCCOCCN)c2)(C(=O)O)C[C@@H]1NS(=O)(=O)O` as the compound, how does the fold change (FC) [1] read?
A: 34

Q: For `CC(=O)N[C@H]1[C@H]([C@H](O)[C@H](O)CNC(=O)c2ccc(-c3ccccc3Cl)cc2)O[C@@](OCCCSCCNC(=O)c2ccc(C(=O)NCCSCCCO[C@]3(C(=O)O)C[C@H](O)[C@@H](NC(C)=O)[C@H]([C@H](O)[C@H](O)CNC(=O)c4ccc(-c5ccccc5Cl)cc4)O3)cc2)(C(=O)O)C[C@@H]1O`, which fold change (FC) [1] is on record?
A: 1.3

Q: What about the fold change (FC) [2] of the same compound?
A: 5.3

Q: How did the fold change (FC) [1] turn out when `CC(=O)N[C@H]1[C@H]([C@H](O)[C@H](O)CNC(=O)c2ccc(-c3ccccc3)cc2)O[C@@](OCCCSCCNC(=O)c2ccc(C(=O)NCCSCCCO[C@]3(C(=O)O)C[C@H](O)[C@@H](NC(C)=O)[C@H]([C@H](O)[C@H](O)CNC(=O)c4ccc(-c5ccccc5)cc4)O3)c(OCCOCCOCCOCCOCCOCCN)c2)(C(=O)O)C[C@@H]1O` was run?
A: 0.14

Q: How did the fold change (FC) [1] turn out when `CC(=O)N[C@H]1[C@H]([C@H](O)[C@H](O)CNC(=O)c2ccc(-c3ccsc3)cc2)O[C@@](OCCCSCCNC(=O)c2ccc(C(=O)NCCSCCCO[C@]3(C(=O)O)C[C@H](O)[C@@H](NC(C)=O)[C@H]([C@H](O)[C@H](O)CNC(=O)c4ccc(-c5ccsc5)cc4)O3)cc2)(C(=O)O)C[C@@H]1O` was run?
A: 0.71

Q: What about the fold change (FC) [2] of the same compound?
A: 1.6

Q: What does the source list for `CC(=O)N[C@H]1[C@H]([C@H](O)[C@H](O)CNC(=O)c2ccc(-c3ccccc3)cc2)O[C@](C(=O)O)(n2cc(CCCCNC(=O)c3ccc(C(=O)NCCCCc4cn([C@]5(C(=O)O)C[C@H](O)[C@@H](NC(C)=O)[C@H]([C@H](O)[C@H](O)CNC(=O)c6ccc(-c7ccccc7)cc6)O5)nn4)cc3)nn2)C[C@@H]1O`?
A: fold change (FC) [1]: < 0.0001; fold change (FC) [2]: 0.86

Q: How did the fold change (FC) [1] turn out when `CC(=O)N[C@H]1[C@H]([C@H](O)[C@H](O)CNC(=O)c2ccc(-c3ccccc3)cc2)O[C@@](OCCCSCCNC(=O)c2cccc(C(=O)NCCSCCCO[C@]3(C(=O)O)C[C@H](O)[C@@H](NC(C)=O)[C@H]([C@H](O)[C@H](O)CNC(=O)c4ccc(-c5ccccc5)cc4)O3)c2)(C(=O)O)C[C@@H]1O` was run?
A: 0.11

Q: What about the fold change (FC) [2] of the same compound?
A: 0.79

Q: `CC(=O)N[C@H]1[C@H]([C@H](O)[C@H](O)CNC(=O)c2ccc(-c3ccccc3)cc2)O[C@@](OCCCSCCNCc2ccc(CNCCSCCCO[C@]3(C(=O)O)C[C@H](O)[C@@H](NC(C)=O)[C@H]([C@H](O)[C@H](O)CNC(=O)c4ccc(-c5ccccc5)cc4)O3)cc2)(C(=O)O)C[C@@H]1O` was tested. Which fold change (FC) [1] did it give?
A: 0.011

Q: What about the fold change (FC) [2] of the same compound?
A: 0.1

Q: What does the source list for `CC(=O)N[C@H]1[C@H]([C@H](O)[C@H](O)CNC(=O)c2ccc(C3CCCCC3)cc2)O[C@@](OCCCSCCNC(=O)c2ccc(C(=O)NCCSCCCO[C@]3(C(=O)O)C[C@H](O)[C@@H](NC(C)=O)[C@H]([C@H](O)[C@H](O)CNC(=O)c4ccc(C5CCCCC5)cc4)O3)cc2)(C(=O)O)C[C@@H]1O`?
A: fold change (FC) [1]: 0.008; fold change (FC) [2]: 0.1

Q: How did the fold change (FC) [1] turn out when `CC(=O)N[C@H]1[C@H]([C@H](O)[C@H](O)CNC(=O)c2ccc(-c3ccccc3)cc2)O[C@@](OCCCSCCNC(=O)c2ccc(C(=O)NCCSCCCO[C@]3(C(=O)O)C[C@H](O)[C@@H](NC(C)=O)[C@H]([C@H](O)[C@H](O)CNC(=O)c4ccc(-c5cccs5)cc4)O3)cc2)(C(=O)O)C[C@@H]1O` was run?
A: 3.7

Q: What about the fold change (FC) [2] of the same compound?
A: 1.2

Q: For `CC(=O)N[C@H]1[C@H]([C@H](O)[C@H](O)CNC(=O)c2ccc(-c3ccccc3)cc2)O[C@@](OCCCSCCNC(=O)c2ccc(C(=O)NCCSCCCO[C@]3(C(=O)O)C[C@H](O)[C@@H](NC(C)=O)[C@H]([C@H](O)[C@H](O)CNC(=O)c4ccc(-c5ccccc5)cc4)O3)c(Br)c2)(C(=O)O)C[C@@H]1O`, which fold change (FC) [1] is on record?
A: 5.9

Q: What about the fold change (FC) [2] of the same compound?
A: 0.77

Q: With `CC(=O)N[C@H]1[C@H]([C@H](O)[C@H](O)CNC(=O)c2ccc(-c3ccccc3)cc2)O[C@@](OCCC[S+]([O-])CCNC(=O)c2ccc(C(=O)NCC[S+]([O-])CCCO[C@]3(C(=O)O)C[C@H](O)[C@@H](NC(C)=O)[C@H]([C@H](O)[C@H](O)CNC(=O)c4ccc(-c5ccccc5)cc4)O3)cc2)(C(=O)O)C[C@@H]1O` (stereo partly drawn) as the compound, how does the fold change (FC) [1] read?
A: 0.013

Q: And the fold change (FC) [2]?
A: 0.49
